Patent US20210000844A1, “OPHTHALMIC COMPOSITION COMPRISING DIQUAFOSOL AND CATIONIC POLYMER” (Santen Pharmaceutical Co., Ltd., priority 2018, published 2021)

Test system: Cultured peripheral nerve cells (dorsal neuro ganglion neuron)
Assay: Test 4: stimulatory property of diquafosol sodium to peripheral nerves (intracellular calcium fluorescence)
Format: cell-based
Settings: stimulation control group (buffer solution instead of formulation solution); diquafosol sodium final concentration 0.3%
Experimental: The stimulatory property of diquafosol sodium to peripheral nerves in the presence of PVP which is a type of […] was examined. “PVP” denotes polyvinylpyrrolidone. “CMC-Na” denotes carboxymethylcellulose sodium. “HPMC” denotes hydroxypropylmethylcellulose. “CVP” denotes a carboxyvinyl polymer.
Cultured peripheral nerve cells (dorsal neuro ganglion neuron; purchased from Lonza Japan Ltd.) were incubated in a buffer solution containing an intracellular calcium indicator fluorescent dye (FLIPR Calcium 6 Assay Kit; Molecular Devices, LLC). 40% of the total amount of the buffer solution was replaced by each of the above-described formulation solutions. A non-stimulation group and a stimulation control group were similarly treated with the buffer solution instead of the formulation solution. The cells were left standing at room temperature, followed by starting fluorescence measurement over time with the calcium indicator dye using a fluorescence plate reader. 60 seconds after the start of the measurement, diquafosol sodium (final concentration: 0.3%) was added, and the measurement of fluorescence intensity was continued.
The maximum fluorescence intensity (RFUmax) after addition of diquafosol sodium was calculated as a relative value against the fluorescence intensity (RFU) immediately before the addition, with the fluorescence intensity (RFU) defined as 100%.

## O=c1ccn([C@@H]2O[C@H](COP(=O)([O-])OP(=O)([O-])OP(=O)([O-])OP(=O)([O-])OC[C@H]3O[C@@H](n4ccc(=O)[nH]c4=O)[C@H](O)[C@@H]3O)[C@@H](O)[C@H]2O)c(=O)[nH]1.[Na+].[Na+].[Na+].[Na+] [diquafosol sodium, diquafosol tetrasodium salt]
  maximum fluorescence intensity (RFUmax) after addition of diquafosol sodium: ≥ 103.5%
